Reference: PubChem BioAssay (NCI)
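Following 48 hours of exposure in 96-well plates, responses at five concentrations were used to interpolate endpoints linearly. GI50: concentration for 50% inhibition of growth. Definition used: TGI = concentration required for complete inhibition of growth.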

Key:
Experiment in all cases: growth of human tumour cells (NCI), 48 h
MALME-3M melanoma = test system: MALME-3M melanoma
DU-145 prostate = test system: DU-145 prostate
OVCAR-3 ovarian = test system: OVCAR-3 ovarian
SK-MEL-28 melanoma = test system: SK-MEL-28 melanoma
NCI-H226 lung = test system: NCI-H226 lung
RPMI-8226 leukemia = test system: RPMI-8226 leukemia
786-0 renal = test system: 786-0 renal
MCF7 breast = test system: MCF7 breast
SK-MEL-5 melanoma = test system: SK-MEL-5 melanoma
CAKI-1 renal = test system: CAKI-1 renal
ACHN renal = test system: ACHN renal
U251 CNS = test system: U251 CNS
LOX IMVI melanoma = test system: LOX IMVI melanoma
KM12 colon = test system: KM12 colon
HCT-116 colon = test system: HCT-116 colon
K-562 leukemia = test system: K-562 leukemia
SF-539 CNS = test system: SF-539 CNS
MDA-MB-231 breast = test system: MDA-MB-231 breast
MDA-MB-435 = test system: MDA-MB-435
NCI-H460 lung = test system: NCI-H460 lung
OVCAR-5 ovarian = test system: OVCAR-5 ovarian
UACC-257 melanoma = test system: UACC-257 melanoma
HCC-2998 colon = test system: HCC-2998 colon
NCI-H522 lung = test system: NCI-H522 lung
BT-549 breast = test system: BT-549 breast
RXF 393 renal = test system: RXF 393 renal
T-47D breast = test system: T-47D breast
SK-OV-3 ovarian = test system: SK-OV-3 ovarian
UO-31 renal = test system: UO-31 renal
A498 renal = test system: A498 renal
MOLT-4 leukemia = test system: MOLT-4 leukemia
TK-10 renal = test system: TK-10 renal
SF-295 CNS = test system: SF-295 CNS
OVCAR-8 ovarian = test system: OVCAR-8 ovarian
UACC-62 melanoma = test system: UACC-62 melanoma
SNB-19 CNS = test system: SNB-19 CNS
SK-MEL-2 melanoma = test system: SK-MEL-2 melanoma
M14 melanoma = test system: M14 melanoma
A549 NSCLC = test system: A549 NSCLC
PC-3 prostate = test system: PC-3 prostate
NCI-H23 lung = test system: NCI-H23 lung
NCI/ADR-RES ovarian = test system: NCI/ADR-RES ovarian
SW-620 colon = test system: SW-620 colon
HCT-15 colon = test system: HCT-15 colon
OVCAR-4 ovarian = test system: OVCAR-4 ovarian
CCRF-CEM leukemia = test system: CCRF-CEM leukemia
SN12C renal = test system: SN12C renal
HT29 colon = test system: HT29 colon
SNB-75 CNS = test system: SNB-75 CNS

COc1cc(/C=C/c2cc(/C=C/c3ccc(O)c(OC)c3)n(C(=O)Cc3ccccc3)n2)ccc1O
GI50 (MALME-3M melanoma): 644 nM | TGI (MALME-3M melanoma): 4980 nM | GI50 (DU-145 prostate): 1480 nM | TGI (DU-145 prostate): 8630 nM | GI50 (OVCAR-3 ovarian): 1120 nM | TGI (OVCAR-3 ovarian): 5270 nM | GI50 (SK-MEL-28 melanoma): 1210 nM | TGI (SK-MEL-28 melanoma): 15100 nM | GI50 (NCI-H226 lung): 2670 nM | TGI (NCI-H226 lung): 9880 nM | GI50 (RPMI-8226 leukemia): 411 nM | TGI (RPMI-8226 leukemia): 2240 nM | GI50 (786-0 renal): 916 nM | TGI (786-0 renal): 4530 nM | GI50 (MCF7 breast): 333 nM | TGI (MCF7 breast): 2520 nM | GI50 (SK-MEL-5 melanoma): 532 nM | TGI (SK-MEL-5 melanoma): 3170 nM | GI50 (CAKI-1 renal): 730 nM | TGI (CAKI-1 renal): 38400 nM | GI50 (ACHN renal): 419 nM | TGI (ACHN renal): 29200 nM | GI50 (U251 CNS): 1210 nM | TGI (U251 CNS): 11200 nM | GI50 (LOX IMVI melanoma): 609 nM | TGI (LOX IMVI melanoma): 9020 nM | GI50 (KM12 colon): 461 nM | TGI (KM12 colon): > 100000 nM | GI50 (HCT-116 colon): 491 nM | TGI (HCT-116 colon): 6760 nM | GI50 (K-562 leukemia): 434 nM | TGI (K-562 leukemia): > 100000 nM | GI50 (SF-539 CNS): 475 nM | TGI (SF-539 CNS): 3910 nM | GI50 (MDA-MB-231 breast): 1450 nM | TGI (MDA-MB-231 breast): 20900 nM | GI50 (MDA-MB-435): 218 nM | TGI (MDA-MB-435): 587 nM | GI50 (NCI-H460 lung): 526 nM | TGI (NCI-H460 lung): 10400 nM | GI50 (OVCAR-5 ovarian): 2770 nM | TGI (OVCAR-5 ovarian): 80000 nM | GI50 (UACC-257 melanoma): 2680 nM | TGI (UACC-257 melanoma): 11500 nM | GI50 (HCC-2998 colon): 2900 nM | TGI (HCC-2998 colon): 11300 nM | GI50 (NCI-H522 lung): 323 nM | TGI (NCI-H522 lung): 1490 nM | GI50 (BT-549 breast): 758 nM | TGI (BT-549 breast): 3930 nM | GI50 (RXF 393 renal): 1140 nM | TGI (RXF 393 renal): 3480 nM | GI50 (T-47D breast): 1330 nM | TGI (T-47D breast): 5170 nM | GI50 (SK-OV-3 ovarian): 690 nM | TGI (SK-OV-3 ovarian): 2640 nM | GI50 (UO-31 renal): 466 nM | TGI (UO-31 renal): 4310 nM | GI50 (A498 renal): 2410 nM | TGI (A498 renal): 6930 nM | GI50 (MOLT-4 leukemia): 464 nM | TGI (MOLT-4 leukemia): > 100000 nM | GI50 (TK-10 renal): 2580 nM | TGI (TK-10 renal): 9090 nM | GI50 (SF-295 CNS): 2010 nM | TGI (SF-295 CNS): 6480 nM | GI50 (OVCAR-8 ovarian): 1850 nM | TGI (OVCAR-8 ovarian): 16700 nM | GI50 (UACC-62 melanoma): 883 nM | TGI (UACC-62 melanoma): 4760 nM | GI50 (SNB-19 CNS): 2430 nM | TGI (SNB-19 CNS): > 100000 nM | GI50 (SK-MEL-2 melanoma): 516 nM | TGI (SK-MEL-2 melanoma): 2510 nM | GI50 (M14 melanoma): 399 nM | TGI (M14 melanoma): 2640 nM | GI50 (A549 NSCLC): 2800 nM | TGI (A549 NSCLC): 16600 nM | GI50 (PC-3 prostate): 915 nM | TGI (PC-3 prostate): 4340 nM | GI50 (NCI-H23 lung): 1560 nM | TGI (NCI-H23 lung): 6590 nM | GI50 (NCI/ADR-RES ovarian): 792 nM | TGI (NCI/ADR-RES ovarian): 10900 nM | GI50 (SW-620 colon): 684 nM | TGI (SW-620 colon): 10900 nM | GI50 (HCT-15 colon): 388 nM | TGI (HCT-15 colon): 3790 nM | GI50 (OVCAR-4 ovarian): 1110 nM | TGI (OVCAR-4 ovarian): 6390 nM | GI50 (CCRF-CEM leukemia): 333 nM | TGI (CCRF-CEM leukemia): > 100000 nM | GI50 (SN12C renal): 1530 nM | TGI (SN12C renal): 44500 nM | GI50 (HT29 colon): 1660 nM | TGI (HT29 colon): 4500 nM | GI50 (SNB-75 CNS): 545 nM | TGI (SNB-75 CNS): 3450 nM
